From US6479447B2, “Bleaching composition for dry cleaning containing transition metal bleach catalyst” (Unilever Home & Personal Care USA, division of Conopco, Inc., priority 1999, dated 2002) come the findings set out here.

A short description of the data set: log P, partitioning between octanol and water. The class given is physicochemical. Particulars: octanol/water at 25° C.; usually determined with hexafluorophosphate as counterion. The method, then:
To the skilled person, log P is a well known coefficient for describing the partitioning of a compound between octanol and water at ambient temperature (25° C.). Whereby P is the concentration of the bleach catalyst in octanol divided by the concentration of bleach catalyst in water. (Leo et al. Chem Rev 1971, 71, 525). The log P is usually determined in the presence of hexafluorophophate as the counterion.

As for `CN1CCN(C)CCN(C)CC1.CN1CCN(C)CCN(C)CC1.F[P-](F)(F)(F)(F)F.F[P-](F)(F)(F)(F)F.[Mn+4].[Mn+4].[O-2].[O-2].[O-2]` [Catalyst 1, Dimanganese-tris-μ-oxo-bis(1,4,7-trimethyl-1,4,7-triazacyclononane) bis(Hexafluorophosphate)], the “log P” value was “less than 3”.

In the case of “Dimanganese-tris-μ-oxo-bis(2-octyl-1,4,7-trimethyl-1,4,7-triazacyclononane) bis(Hexasulphate) [Catalyst 2]”, the “log P” value was “more than 3”.
